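Growth conditions: 96-well plates. Treatment: test compound, 48 hours, 5 concentrations. Analysis: linear interpolation between bracketing concentrations; unreached endpoints set to highest concentration. Here, GI50 denotes the concentration required for 50% inhibition of growth. The concentration for full growth arrest is given as TGI.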
How the values were obtained:
Assay in all cases: NCI anticancer screen, dose series, 48 h
HOP-62 NSCLC = test system: HOP-62 NSCLC
UACC-62 melanoma = test system: UACC-62 melanoma
TK-10 renal = test system: TK-10 renal
EKVX NSCLC = test system: EKVX NSCLC
NCI-H522 lung = test system: NCI-H522 lung
SF-268 CNS = test system: SF-268 CNS
SF-295 CNS = test system: SF-295 CNS
K-562 leukemia = test system: K-562 leukemia
A498 renal = test system: A498 renal
UO-31 renal = test system: UO-31 renal

Row | Structure (SMILES) | TGI (HOP-62 NSCLC) [µM] | TGI (UACC-62 melanoma) [µM] | TGI (TK-10 renal) [µM] | TGI (EKVX NSCLC) [µM] | TGI (NCI-H522 lung) [µM] | TGI (SF-268 CNS) [µM] | TGI (SF-295 CNS) [µM] | TGI (K-562 leukemia) [µM] | TGI (A498 renal) [µM] | TGI (UO-31 renal) [µM] | GI50 (HOP-62 NSCLC) [µM] | GI50 (UACC-62 melanoma) [µM] | GI50 (TK-10 renal) [µM] | GI50 (EKVX NSCLC) [µM] | GI50 (NCI-H522 lung) [nM] | GI50 (SF-268 CNS) [µM] | GI50 (SF-295 CNS) [µM] | GI50 (K-562 leukemia) [µM] | GI50 (A498 renal) [µM] | GI50 (UO-31 renal) [nM]
1 | CCCCCCCCCCCCCCCCCCOCC(COCCOCC[N+]1(CCCCCC(=O)[O-])CCCC1)Oc1ncccn1 (stereo not given) | 5.24 | 14.2 | 20.3 | 31.3 | 7.68 | 16.5 | 27.2 | 14.2 | 9.55 | 23.6 |  |  |  |  |  |  |  |  |  | 
2 | Cc1c(C)c(CC(=O)N2CC2)c(C)c(C)c1CC(=O)N1CC1 | 44.2 | 17.2 | > 83 | 65.8 | 27.1 | 23.1 | 60.5 | > 92.7 | 32.1 | 38.7 |  |  |  |  |  |  |  |  |  | 
3 | O=C(O)c1ccccc1C(=O)c1ccc2c(c1)Cc1ccccc1-2 | > 100 | > 100 | > 100 | > 100 | > 100 | > 100 | > 100 | > 100 | > 100 | > 100 |  |  |  |  |  |  |  |  |  | 
4 | N#Cc1c(-c2ccco2)cc(-c2ccccc2)[nH]c1=O | > 100 | > 100 | > 100 | > 100 | > 100 | > 100 | > 100 | > 100 | > 100 | > 100 |  |  |  |  |  |  |  |  |  | 
5 | C=C1C(=O)C23C(O)C1CC[C@H]2C12CCCC(C)(COC(C)=O)[C@H]1[C@H](O)[C@]3(O)OC2 (stereo not given in full) | 8.56 | 3.16 | 3.62 | 9.67 | 0.902 | 6.95 | 2.41 | 1.07 | 6.77 | 3.35 |  |  |  |  |  |  |  |  |  | 
6 | CC(C)Oc1ccc(C(=O)Cn2ccnc2)cc1-n1c(CN2CCN(C(=O)COc3ccc(Cl)cc3)CC2)nc2ccccc2c1=O | 44.9 | 28.9 | > 74.4 | 97 | 14.8 | 32.9 | 31.6 | 81.3 | 28.6 | 2.98 | 15 | 12.8 | 12.8 | 16.5 | 2240 | 12.9 | 14.8 | 5.77 | 14.1 | 1560

Source: PubChem BioAssay (NCI)
